Active and inactive are the calls of the source.
Columns and labels:
Format in all cases: functional, cell-based
Platelet [1] = experiment: Inhibition of PAF-induced platelet aggregation
Platelet [2] = experiment: Inhibition of ADP-induced platelet aggregation
Platelet [3] = experiment: Inhibition of AA-induced platelet aggregation

Measured: Activity

C[C@@H]1CN2C(=O)CC[C@@]34C5=CCC[C@@H]5CCC5[C@H](O)OC[C@]53CC[C@H]1[C@H]24 (some centres not stated)
inactive: Platelet [1] | Platelet [2] | Platelet [3]

C[C@@H]1CN(C=O)[C@H]2[C@@H]1CC[C@]13COC(=O)CC[C@]21C1=CCC[C@@H]1CCC3=O
inactive: Platelet [1] | Platelet [2] | Platelet [3]

COC(=O)CC[C@@]12C3=CCC[C@@H]3CC[C@@H]3CN4C[C@@H](C)C(CC[C@@]31CO)C42 (some centres not stated)
inactive: Platelet [1] | Platelet [2] | Platelet [3]

C[C@@H]1CN(C=O)[C@H]2[C@@H]1CC[C@@]1(CO)C(=O)CC[C@H]3CCC=C3[C@@]21CCC(=O)O
inactive: Platelet [1] | Platelet [2] | Platelet [3]

From ChEMBL document CHEMBL1141254, “Daphnimacropodines A-D, alkaloids from Daphniphyllum macropodum” (J Nat Prod, 2007)
